Results on eleven compounds are retold here after ChEMBL document CHEMBL1201862, “PubChem BioAssay data set” (2004).

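Following 48 hours of exposure in 96-well plates, responses at five concentrations were used to interpolate endpoints linearly. GI50 = concentration required for 50% inhibition of growth.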 The source made the active and inactive calls. Cut-off read from the data, not from the text of the source: active = GI50 up to about 1.1 µM and inactive = higher. A value given as a limit tells only on which side of the number the result lay.

Assay in all cases: NCI-60 cell line screen, 48 h
Test [1] deals with NCI-H226.
In test [2] the test system is UACC-257.
For test [3], the system named is RXF 393.
The test system of test [4] is SF-295.
The test system of test [5] is HL-60.
In test [6] the test system is M14.
Test [7] deals with OVCAR-8.
For test [8], the system named is ACHN.
Test [9] has as its system BT-549.
Test [10] deals with LOX IMVI.
Test [11] concerns KM12.
For test [12], the system named is UO-31.
In test [13] the test system is T47D.
The test system of test [14] is RPMI-8226.
In test [15] the test system is PC-3.
For test [16], the system named is MOLT-4.
Test [17] relates to 786-0.
The subject of test [18] is HCT-15.
Test [19] deals with NCI-H522.
The test system of test [20] is CAKI-1.

For the compound `CC1(C)C/N=C/C(C)(OCc2ccccc2)C(=O)NC(C)(C)C/N=C/C(C)(OCc2ccccc2)C(=O)N1` (stereo not given), the GI50 in test [1], in test [2], in [3], in test [4], in test [5] and in test [6] was > 10 µM (inactive) in each case. Moreover, the GI50 in test [7], in test [8], in [9], in test [10], in test [11] and in test [12] was > 10 µM (inactive) in each case. Further, the GI50 in [13] was > 10 µM (inactive); in [14] it was > 10 µM (inactive); in [15], > 10 µM (inactive); in test [16], > 10 µM (inactive); in [17], > 10 µM (inactive); in test [18] it was over 10 µM.
With `C/C(=N\Nc1nc2ccccc2o1)c1cccc[n+]1[O-]`, the GI50 in [1] is 45.7 µM (inactive); in test [2] it was 13 µM (inactive); in [3], 24.6 µM (inactive); in test [4], 0.0877 µM (active); in test [6], 5.87 µM (inactive); in test [7], 20 µM (inactive). For the same compound, the GI50 in [8] is 12.6 µM (inactive); in test [19], 3.86 µM (inactive); in [9], 81.7 µM (inactive); in [10], 13.4 µM (inactive); in test [11], 23.2 µM (inactive); in test [12], 4.45 µM (inactive). For the same compound, the GI50 in [13] was 2.89 µM (inactive); in [14], 12 µM (inactive); in test [20], 2.69 µM (inactive); in test [15] it was 5.36 µM (inactive); in test [16] it was 1.5 µM (inactive); in [17] it was 21.7 µM (inactive). The GI50 in test [18] was 4.88 µM.
For the compound `COc1cc(NS(C)(=O)=O)ccc1Nc1ccnc2ccc3[nH]ccc3c12`, the GI50 in test [1] was 18.9 µM (inactive); in test [2], 18.2 µM (inactive); in [4] it was 18.2 µM (inactive); in test [5], 31.5 µM (inactive); in test [6], 16.4 µM (inactive); in test [7], 13.6 µM (inactive). Besides, the GI50 in [8] is 18.4 µM (inactive); in test [19], 5.6 µM (inactive); in test [9], 14.6 µM (inactive); in [10], 15.2 µM (inactive); in test [11] it was 13.8 µM (inactive); in [12] it was 40.2 µM (inactive). Also, the GI50 in [13] was 14.9 µM (inactive); in test [14], 15 µM (inactive); in test [20] it was 17.3 µM (inactive); in test [15], 13.1 µM (inactive); in test [17], 14.6 µM (inactive); in [18], 58.3 µM.
Take `Nc1cc(OCc2ccccc2)c(OCc2ccccc2)cc1C=O`: the GI50 was 44 µM (inactive) in test [1]; 85.9 µM (inactive) in [2]; 31.4 µM (inactive) in test [4]; 15.2 µM (inactive) in test [5]; 26.4 µM (inactive) in test [7]; 26 µM (inactive) in test [8]. Further, the GI50 in test [19] was 0.141 µM (active); in test [9], 14.5 µM (inactive); in [10], 26.2 µM (inactive); in [11] it was 23.3 µM (inactive); in [13] it was 21.1 µM (inactive); in [14] it was 27 µM (inactive). The GI50 in [15] is 35.1 µM (inactive); in test [16], 18.6 µM (inactive); in [17], 17.5 µM (inactive); in [18], 19.8 µM.
For the compound `CSc1nc2c(c(N(C)C)n1)C=Nn1c(nc3ccccc31)S2`, the GI50 in test [1] was > 100 µM (inactive); in test [2], 99.1 µM (inactive); in [3], 29 µM (inactive); in test [4] it was > 100 µM (inactive); in [6], > 100 µM (inactive); in [7], 74.3 µM (inactive). Also, the GI50 in [8] was 61.2 µM (inactive); in test [19], 55.5 µM (inactive); in test [9], 95.9 µM (inactive); in test [10], 76.2 µM (inactive); in test [11], > 100 µM (inactive); in test [12], 51.1 µM (inactive). Further, the GI50 was 64.1 µM (inactive) in test [13]; > 100 µM (inactive) in [14]; > 100 µM (inactive) in test [20]; > 100 µM (inactive) in test [15]; > 100 µM (inactive) in test [16]; 65 µM (inactive) in test [17]. The same compound gave a GI50 in test [18] of over 100 µM.
Take `Cn1c(N)nc(-c2ccc(Cl)cc2)c1SSc1c(-c2ccc(Cl)cc2)nc(N)n1C`: the GI50 in [1] was 37.2 µM (inactive); in test [2] it was 2.04 µM (inactive); in test [3], 2.43 µM (inactive); in test [4], 6.93 µM (inactive); in test [5], 1.05 µM (active); in test [6] it was 2.12 µM (inactive). Moreover, the GI50 was 2.86 µM (inactive) in test [7]; 2.38 µM (inactive) in [8]; 1.66 µM (inactive) in test [19]; 2.58 µM (inactive) in [9]; 1.85 µM (inactive) in test [11]; 1.85 µM (inactive) in test [12]. For the same compound, the GI50 was 2.28 µM (inactive) in [13]; 1.31 µM (inactive) in test [14]; 1.84 µM (inactive) in test [15]; 5.25 µM (inactive) in test [16]; 1.92 µM (inactive) in test [17]; 1.77 µM in [18].
For the compound `CCOC1OC(CO)C(O)CC1n1ccc(=O)[nH]c1=O` (stereo not given), the GI50 in [1], in test [2], in [3], in [4], in [6] and in test [7] was > 100 µM (inactive) throughout. Moreover, the GI50 is > 100 µM (inactive) in test [8]; 30.3 µM (inactive) in test [19]; > 100 µM (inactive) in test [9]; > 100 µM (inactive) in test [10]; > 100 µM (inactive) in [11]; > 100 µM (inactive) in test [12]. In addition, the GI50 in [13] is > 100 µM (inactive); in [14] it was > 100 µM (inactive); in test [20], > 100 µM (inactive); in test [15], > 100 µM (inactive); in [17], > 100 µM (inactive); in test [18], over 100 µM.
Take `CN1C(=O)C(=CNc2ccccc2[N+](=O)[O-])C(=O)N(C)C1=O`: the GI50 in [1], in [2], in test [3], in test [4], in [6] and in test [7] was > 100 µM (inactive) each time. In addition, the GI50 in [8], in test [19], in [9], in [10], in test [11] and in test [12] was > 100 µM (inactive) each time. Further, the GI50 in test [13], in test [14], in test [20], in [15], in [16] and in test [17] was > 100 µM (inactive) in each case. Also, in test [18], the GI50 is over 100 µM.
With `CC1OC23CCCCC2C(C#N)(C#N)C1(C#N)C(=N)O3` (stereo not given), the GI50 in test [1] was > 100 µM (inactive); in test [2], 18 µM (inactive); in test [3], 19.7 µM (inactive); in test [4], 70 µM (inactive); in [5], 4.21 µM (inactive); in test [6], 20.1 µM (inactive). For the same compound, the GI50 is 20.7 µM (inactive) in test [7]; 19.9 µM (inactive) in test [8]; 17.7 µM (inactive) in test [9]; 17.6 µM (inactive) in test [10]; 24.3 µM (inactive) in test [11]; > 10 µM (inactive) in test [12]. Further, the GI50 in [13] was 18.7 µM (inactive); in test [20], 6.9 µM (inactive); in test [15], 24.4 µM (inactive); in test [16], 23.2 µM (inactive); in test [17], 12.8 µM (inactive); in test [18], 15.3 µM.
Consider `Brc1ccc(C2CC3(c4ccccc4)ON=C(c4ccccc4)N3c3ccccc3S2)cc1` (stereo not given), for which the GI50 in test [1], in test [2], in [3], in test [4], in test [5] and in test [6] was > 100 µM (inactive) in each case. Besides, the GI50 in test [7], in [8], in [19], in test [9], in [10] and in [11] was > 100 µM (inactive) in each case. For the same compound, the GI50 in test [12] is > 100 µM (inactive); in [13], > 100 µM (inactive); in test [15], > 100 µM (inactive); in test [16] it was > 100 µM (inactive); in test [17], > 100 µM (inactive); in test [18], over 100 µM.
As for `Cc1c2c(n(CCc3ccc(Cl)cc3)c1C)NC(c1ccccc1)C(C#N)S2(=O)=O` (stereo not given), the GI50 in [1] was > 59.7 µM (inactive); in test [2] it was 58.6 µM (inactive); in [4], > 53.5 µM (inactive); in [5], 7 µM (inactive); in [6] it was 27.2 µM (inactive); in test [7] it was 47 µM (inactive). For the same compound, the GI50 was > 100 µM (inactive) in test [8]; 11.7 µM (inactive) in test [19]; 37 µM (inactive) in test [9]; 24.5 µM (inactive) in [10]; 18.3 µM (inactive) in [11]; 13.9 µM (inactive) in test [12]. Besides, the GI50 in [13] was 17.9 µM (inactive); in test [14], 3.51 µM (inactive); in test [20], > 100 µM (inactive); in [15] it was 19.6 µM (inactive); in test [16] it was 3.24 µM (inactive); in test [17], 32.3 µM (inactive). The compound further returned a GI50 in test [18] of over 48 µM.
